Literature values as cited in article PMC4381587, “A novel PI3K inhibitor PIK-C98 displays potent preclinical activity against multiple myeloma” (Oncotarget, 2014).

Columns and labels:
[1] = test system: relapsed chronic lymphocytic leukemia; set-up: method as in PMID 24450857, PMID 24450858; details: phase II, single agent; cited from earlier work
[2] = test system: relapsed indolent lymphoma; set-up: method as in PMID 24450857, PMID 24450858; details: phase II, single agent; cited from earlier work

SMILES: CC[C@H](Nc1ncnc2[nH]cnc12)c1nc2cccc(F)c2c(=O)n1-c1ccccc1 [idelalisib]
- overall complete rate [1]: 72%
- total response rate [2]: 57%
